Reference: patent US4463004A, “Dioxazabicyclic derivatives” (Delalande S.A., priority 1981, dated 1984)

Assays:
[1] = Acute toxicity, intraperitoneal (Miller and Tainter); settings: mouse, in vivo, ip; mice, i.p.; read-out: Acute toxicity LD 50
Protocol: Acute toxicity was evaluated intraperitoneally in mice according to the method described by MILLER and TAINTER in Proc. Soc. Exp. Biol. Med. 57, 261 (1944).

mice = assay: analgesia test using phenylbenzoquinone; format: in vivo; settings: Mus musculus, ip, read-out: Analgesia test ED 50
Protocol: Exp. Biol. Med. 95, 729(1957).
The compounds of the invention were administered intraperitoneally.

## CCN1CC2COC(c3ccc(F)cc3)(C1)O2 (stereo not drawn) [compound 25]
[1]
  LD50: 280 mg/kg
mice
  ED50: 14 mg/kg

## c1ccc(CN2CC3COC(C4CCCCC4)(C2)O3)cc1 (stereo not drawn) [compound 30]
[1]
  LD50: > 400 mg/kg
mice
  ED50: 26 mg/kg

## O=C(c1ccccc1)c1cccc(C23CNCC(CO2)O3)c1 (stereo not drawn) [compound 59]
[1]
  LD50: 155 mg/kg
mice
  ED50: 13.5 mg/kg

## Clc1cccc(C23CNCC(CO2)O3)c1 (stereo not drawn) [Code number 9]
[1]
  LD50: 240 mg/kg
mice
  ED50: 10 mg/kg

## O=C(O)c1ccc(C23CNCC(CO2)O3)cc1 (stereo not drawn) [compound 54]
[1]
  LD50: > 400 mg/kg
mice
  ED50: 38 mg/kg

## CC(=O)Nc1ccc(C23CNCC(CO2)O3)cc1 (stereo not drawn) [compound 44]
[1]
  LD50: 380 mg/kg
mice
  ED50: 7 mg/kg

## Fc1ccc(C23CCCNCC(CO2)O3)cc1 (stereo not drawn) [compound 32]
[1]
  LD50: 140 mg/kg
mice
  ED50: 9 mg/kg

## N#Cc1ccc(C23CNCC(CO2)O3)cc1 (stereo not drawn) [compound 19]
[1]
  LD50: 280 mg/kg
mice
  ED50: 19 mg/kg

## c1ccc(-c2ccc(C34CNCC(CO3)O4)cc2)cc1 (stereo not drawn) [compound 40]
[1]
  LD50: 310 mg/kg
mice
  ED50: 24 mg/kg

## Clc1ccc(C23CNCC(CO2)O3)cc1Cl (stereo not drawn) [compound 23]
[1]
  LD50: 300 mg/kg
mice
  ED50: 10 mg/kg

## COc1ccccc1C12CNCC(CO1)O2 (stereo not drawn) [compound 14]
[1]
  LD50: 300 mg/kg
mice
  ED50: 8 mg/kg

## c1csc(C23CNCC(CO2)O3)c1 (stereo not drawn) [Code number 4]
[1]
  LD50: > 400 mg/kg
mice
  ED50: 24 mg/kg

## CC(C)(C)C12CNCC(CO1)O2 (stereo not drawn) [Code number 1]
[1]
  LD50: 400 mg/kg
mice
  ED50: 18 mg/kg

## c1cncc(C23CNCC(CO2)O3)c1 (stereo not drawn) [compound 48]
[1]
  LD50: > 400 mg/kg
mice
  ED50: 58 mg/kg

## COc1ccc2cc(C34CNCC(CO3)O4)ccc2c1 (stereo not drawn) [compound 56]
[1]
  LD50: 240 mg/kg
mice
  ED50: 21 mg/kg

## Fc1ccc(C23CNCC(CO2)O3)cc1 (stereo not drawn) [Code number 7, 5-parafluorophenyl-6,8-dioxa-3-azabicyclo [3.2.1] octane meleate]
[1]
  LD50: 300 mg/kg
mice
  ED50: 10 mg/kg

## O=[N+]([O-])c1ccc(C23CNCC(CO2)O3)cc1 (stereo not drawn) [compound 21]
[1]
  LD50: 290 mg/kg
mice
  ED50: 10 mg/kg

## c1ccc2cc(C34CNCC(CO3)O4)ccc2c1 (stereo not drawn) [compound 39]
[1]
  LD50: 310 mg/kg
mice
  ED50: 8 mg/kg

## c1ccc2c(C34CNCC(CO3)O4)cccc2c1 (stereo not drawn) [compound 58]
[1]
  LD50: 160 mg/kg
mice
  ED50: 28 mg/kg

## c1cc(C23CNCC(CO2)O3)ccc1C1CCCCC1 (stereo not drawn) [compound 42]
[1]
  LD50: > 400 mg/kg
mice
  ED50: 15 mg/kg

## C1C2CC3CC1CC(C14CNCC(CO1)O4)(C2)C3 (stereo not drawn) [compound 36]
[1]
  LD50: 185 mg/kg
mice
  ED50: 30 mg/kg
